Tests used:
[1] = biological target: Tyrosine-protein kinase JAK2 (Homo sapiens, UniProt O60674); test: (§1) Inhibition of JAK: The study of the effect of compounds on the activity of purified recombinant JAK was performed by studying the inhibitory activity of the compounds on JAK from the enzymatic level. The experimental principle is to use a luminescence kinase assay to detect the ADP content produced by the reaction of JAK with the substrate Poly (4:1 Glu, Tyr) peptide: after ADP is converted to ATP, ATP can act as a substrate for the Ultra-Glo luciferase catalytic reaction, producing an optical signal. The luminescence signal is positively correlated with the amount of ADP and kinase activity. Therefore, the inhibitory effect of the compounds on the recombinant JAK was determined by observing the luminescence signal produced by the reaction of JAK and the substrate, and was expressed by IC50.
[2] = biological target: T1, Tyrosine-protein kinase JAK3 (Homo sapiens, UniProt P52333); test: as §1
T1 sequence (P52333 whole entry): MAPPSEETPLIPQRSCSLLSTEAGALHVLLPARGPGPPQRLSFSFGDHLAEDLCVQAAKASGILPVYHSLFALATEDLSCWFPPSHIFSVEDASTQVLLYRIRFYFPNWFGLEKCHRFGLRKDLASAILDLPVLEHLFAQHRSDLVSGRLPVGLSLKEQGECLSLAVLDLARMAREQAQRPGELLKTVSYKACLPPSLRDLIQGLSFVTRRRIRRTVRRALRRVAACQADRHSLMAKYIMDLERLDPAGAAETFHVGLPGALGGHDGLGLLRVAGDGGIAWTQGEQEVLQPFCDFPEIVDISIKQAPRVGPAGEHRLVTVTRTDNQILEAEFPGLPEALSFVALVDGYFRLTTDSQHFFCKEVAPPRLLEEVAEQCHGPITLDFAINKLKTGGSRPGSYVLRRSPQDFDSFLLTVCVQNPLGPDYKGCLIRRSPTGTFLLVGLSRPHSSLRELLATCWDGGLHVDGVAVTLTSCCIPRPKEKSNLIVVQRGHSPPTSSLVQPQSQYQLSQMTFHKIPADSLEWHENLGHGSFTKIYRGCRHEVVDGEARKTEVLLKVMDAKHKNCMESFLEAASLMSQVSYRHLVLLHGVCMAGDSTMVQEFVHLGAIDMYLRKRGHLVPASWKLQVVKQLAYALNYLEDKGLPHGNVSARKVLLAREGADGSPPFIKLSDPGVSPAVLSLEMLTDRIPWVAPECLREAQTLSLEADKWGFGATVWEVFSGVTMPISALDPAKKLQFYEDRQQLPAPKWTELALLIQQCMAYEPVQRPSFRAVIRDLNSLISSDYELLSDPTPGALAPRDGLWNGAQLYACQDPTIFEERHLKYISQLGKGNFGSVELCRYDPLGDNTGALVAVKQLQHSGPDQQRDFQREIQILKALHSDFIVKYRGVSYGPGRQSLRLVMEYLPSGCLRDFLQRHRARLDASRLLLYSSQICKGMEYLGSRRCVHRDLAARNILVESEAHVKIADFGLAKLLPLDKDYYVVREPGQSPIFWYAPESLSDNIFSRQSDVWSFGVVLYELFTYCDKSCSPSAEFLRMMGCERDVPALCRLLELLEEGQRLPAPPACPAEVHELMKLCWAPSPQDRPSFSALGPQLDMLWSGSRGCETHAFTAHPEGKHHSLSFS

Sequence of Tyrosine-protein kinase JAK2 (O60674 whole entry): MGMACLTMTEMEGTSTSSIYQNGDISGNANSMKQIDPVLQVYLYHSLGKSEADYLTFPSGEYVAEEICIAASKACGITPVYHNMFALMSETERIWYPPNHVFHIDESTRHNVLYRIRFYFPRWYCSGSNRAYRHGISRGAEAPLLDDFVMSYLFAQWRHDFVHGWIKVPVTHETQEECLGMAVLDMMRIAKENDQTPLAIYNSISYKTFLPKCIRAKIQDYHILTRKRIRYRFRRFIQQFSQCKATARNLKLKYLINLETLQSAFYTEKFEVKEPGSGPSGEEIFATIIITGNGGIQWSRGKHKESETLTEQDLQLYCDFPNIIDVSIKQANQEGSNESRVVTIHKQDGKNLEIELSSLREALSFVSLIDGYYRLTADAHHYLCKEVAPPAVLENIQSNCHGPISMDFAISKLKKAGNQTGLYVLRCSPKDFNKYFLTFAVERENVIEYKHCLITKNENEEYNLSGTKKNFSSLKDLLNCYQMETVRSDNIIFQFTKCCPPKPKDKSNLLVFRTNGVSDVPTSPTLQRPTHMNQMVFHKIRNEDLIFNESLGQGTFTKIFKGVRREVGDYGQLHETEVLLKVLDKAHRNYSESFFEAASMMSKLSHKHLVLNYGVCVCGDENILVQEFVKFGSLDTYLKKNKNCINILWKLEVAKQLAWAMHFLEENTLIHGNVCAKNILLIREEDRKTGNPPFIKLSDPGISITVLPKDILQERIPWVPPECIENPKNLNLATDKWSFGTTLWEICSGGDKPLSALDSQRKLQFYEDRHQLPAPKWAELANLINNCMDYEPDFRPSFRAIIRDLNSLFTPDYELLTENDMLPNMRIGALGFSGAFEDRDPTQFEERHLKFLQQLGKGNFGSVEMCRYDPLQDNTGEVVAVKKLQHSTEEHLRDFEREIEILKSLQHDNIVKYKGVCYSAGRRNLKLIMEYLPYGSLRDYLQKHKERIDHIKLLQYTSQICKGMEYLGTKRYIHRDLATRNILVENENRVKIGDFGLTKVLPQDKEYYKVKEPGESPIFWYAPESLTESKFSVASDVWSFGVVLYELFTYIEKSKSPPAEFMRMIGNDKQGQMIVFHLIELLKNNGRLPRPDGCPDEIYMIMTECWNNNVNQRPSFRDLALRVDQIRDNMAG

IC50 [1] [nM] | IC50 [2] [nM] | Compound
> 50 | > 50 | CS(=O)(=O)C1CN(Cc2ccc(-c3cccn4nc(NC(=O)C5CC5)nc34)cc2F)C1
> 50 | > 50 | CS(=O)(=O)C1CN(Cc2ccc(-c3cccc4nc(NC(=O)C5CC5)nn34)cc2F)C1
